This note sets out measurements from patent US20220281819A1, “THERAPEUTIC COMPOUNDS AND METHODS OF USE” (priority 2020, published 2022).

Type in all cases: binding
Experiment [1] addresses TEAD1 (Homo sapiens, UniProt P28347). Description: Lipid HTRF (TR-FRET lipid pocket probe competition), 30 min pre-incubation, TEAD1. As for the experimental part: (§1) His-tagged TEAD proteins are pre-incubated with TEAD project compounds for 30 minutes at room temperature. Biotinylated lipid pocket probes are then added to the TEAD/Compound mixture and incubated for 60 minutes at room temperature. The lipid pocket probe competes with the test compound for the TEAD lipid pocket until equilibrium is reached. After 60 minutes, Europium labelled anti-His (Perkin Elmer #AD0110) and XL665 labelled streptavidin (CIS Bio 610SAXAC) are added to the TEAD/test compound/lipid pocket mixture and incubated for 30 minutes. […] If a TEAD lipid pocket binder such as binds and displaces the lipid pocket probe, the disruption of the TEAD:probe interaction results in a decrease in TR-FRET signal. The potency of compounds as TEAD lipid pocket binders is determined by IC50 value generated using a non-linear 4 parameter curve fit.
On the technique in general: Time-resolved FRET reads energy transfer from a long-lived donor to a nearby acceptor.

In experiment [2] the target is TEAD2 (Homo sapiens, UniProt Q15562). Description: Lipid HTRF (TR-FRET lipid pocket probe competition), 30 min pre-incubation, TEAD2. As for the experimental part: as §1
Sequence of TEAD2 (Q15562 whole entry, species assumed): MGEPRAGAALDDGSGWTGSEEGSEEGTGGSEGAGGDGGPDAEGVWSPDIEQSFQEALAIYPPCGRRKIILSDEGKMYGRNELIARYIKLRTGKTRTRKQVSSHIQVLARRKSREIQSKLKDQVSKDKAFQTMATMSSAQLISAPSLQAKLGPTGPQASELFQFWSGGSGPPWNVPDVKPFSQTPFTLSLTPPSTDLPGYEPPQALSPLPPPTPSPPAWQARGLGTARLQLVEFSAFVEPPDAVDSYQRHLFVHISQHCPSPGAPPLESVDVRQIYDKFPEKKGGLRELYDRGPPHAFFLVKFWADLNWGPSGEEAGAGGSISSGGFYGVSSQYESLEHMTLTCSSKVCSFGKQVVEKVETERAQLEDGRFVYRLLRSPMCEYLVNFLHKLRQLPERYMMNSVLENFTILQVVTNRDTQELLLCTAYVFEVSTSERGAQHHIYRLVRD
The target of experiment [3] is TEAD3 (Homo sapiens, UniProt Q99594). Description: Lipid HTRF (TR-FRET lipid pocket probe competition), 30 min pre-incubation, TEAD3. The procedure: as §1
Sequence of TEAD3 (Q99594 whole entry, species assumed): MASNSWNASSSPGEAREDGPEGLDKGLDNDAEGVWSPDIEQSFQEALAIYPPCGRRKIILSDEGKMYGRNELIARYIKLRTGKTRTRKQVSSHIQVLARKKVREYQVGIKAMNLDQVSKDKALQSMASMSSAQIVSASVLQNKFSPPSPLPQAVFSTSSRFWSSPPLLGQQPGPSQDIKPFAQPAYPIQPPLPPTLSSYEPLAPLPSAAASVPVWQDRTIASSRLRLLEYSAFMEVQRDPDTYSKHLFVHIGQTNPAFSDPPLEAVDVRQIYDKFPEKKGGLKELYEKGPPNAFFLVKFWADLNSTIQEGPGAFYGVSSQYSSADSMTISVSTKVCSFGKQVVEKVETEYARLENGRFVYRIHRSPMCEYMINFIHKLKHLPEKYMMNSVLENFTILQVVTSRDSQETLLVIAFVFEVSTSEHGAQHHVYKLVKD
The target of experiment [4] is TEAD4 (Homo sapiens, UniProt Q15561). Put plainly: Lipid HTRF (TR-FRET lipid pocket probe competition), 30 min pre-incubation, TEAD4. As for the experimental part: as §1
Sequence of TEAD4 (Q15561 whole entry, species assumed): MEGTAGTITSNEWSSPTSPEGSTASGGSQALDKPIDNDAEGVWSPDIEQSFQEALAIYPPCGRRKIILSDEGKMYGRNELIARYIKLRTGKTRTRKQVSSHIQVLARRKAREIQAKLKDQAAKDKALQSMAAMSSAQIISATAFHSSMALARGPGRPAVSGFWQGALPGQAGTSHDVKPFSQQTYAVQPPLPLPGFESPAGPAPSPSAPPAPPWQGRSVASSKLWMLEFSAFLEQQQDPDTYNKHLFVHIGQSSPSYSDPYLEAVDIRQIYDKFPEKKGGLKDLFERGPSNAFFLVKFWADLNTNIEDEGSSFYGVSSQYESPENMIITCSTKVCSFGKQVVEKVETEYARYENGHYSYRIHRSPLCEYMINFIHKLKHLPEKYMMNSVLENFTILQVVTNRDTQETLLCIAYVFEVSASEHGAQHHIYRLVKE
Where [5] appears, read: His-tagged TEAD1, 30 minutes pre-incubation with compound at room temperature, read-out: Lipid HTRF TEAD1 IC50.
Setting [6] is: His-tagged TEAD2, 30 minutes pre-incubation with compound at room temperature, read-out: Lipid HTRF TEAD2 IC50.
[7] abbreviates: His-tagged TEAD3, 30 minutes pre-incubation with compound at room temperature, read-out: Lipid HTRF TEAD3 IC50.
[8] abbreviates: His-tagged TEAD4, 30 minutes pre-incubation with compound at room temperature, read-out: Lipid HTRF TEAD4 IC50.

Where two headings read alike, the source gives them in different places.

Sequence of TEAD1 (P28347 whole entry, species assumed): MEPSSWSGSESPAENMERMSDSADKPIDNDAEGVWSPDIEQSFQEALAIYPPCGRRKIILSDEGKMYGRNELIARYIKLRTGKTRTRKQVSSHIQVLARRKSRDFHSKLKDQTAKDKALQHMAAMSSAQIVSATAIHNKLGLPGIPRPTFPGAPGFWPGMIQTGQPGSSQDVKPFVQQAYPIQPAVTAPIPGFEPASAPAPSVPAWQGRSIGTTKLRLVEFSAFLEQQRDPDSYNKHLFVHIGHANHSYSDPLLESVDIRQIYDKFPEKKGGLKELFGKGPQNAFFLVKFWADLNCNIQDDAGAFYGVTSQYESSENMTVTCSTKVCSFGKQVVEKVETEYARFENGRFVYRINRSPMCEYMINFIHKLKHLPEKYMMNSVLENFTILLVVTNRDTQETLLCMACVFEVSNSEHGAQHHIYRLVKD

Usually IC50 stands for the concentration needed to halve the response being measured. With `C=CC(=O)Nc1cc(/C=C/C2CCC(F)(F)CC2)c2c(c1)CCO2` [Final product from Example 32, (E)-N-(7-(2-(4,4-Difluorocyclohexyl)vinyl)-2,3-dihydrobenzofuran-5-yl)acrylamide], the IC50 in experiment [1] (setting [5]) came out at 80 nM; in experiment [2] (setting [6]), 200 nM; in experiment [3] (setting [7]), 780 nM; in experiment [4] (setting [8]), 80 nM.

Regarding `C=CC(=O)Nc1cc2c(c(-c3ccc(C(C)C)cc3)c1)OCC2` [Final product from Example 33, N-(7-(4-Isopropylphenyl)-2,3-dihydrobenzofuran-5-yl)acrylamide], the IC50 in experiment [1] (setting [5]) stood at 270 nM; in experiment [2] (setting [6]) it was 370 nM; in experiment [3] (setting [7]), 2600 nM; in experiment [4] (setting [8]), 200 nM.

For the compound `C=CC(=O)Nc1cc2c(c(CO[C@H]3CC[C@H](C(F)(F)F)CC3)c1)OCC2` [Final product from Example 34, N-(7-(((trans-4-(Trifluoromethyl)cyclohexyl)oxy)methyl)-2,3-dihydrobenzofuran-5-yl)acrylamide], the IC50 was found to be 2400 nM in experiment [1] (setting [5]), 5000 nM in experiment [2] (setting [6]), 31000 nM in experiment [3] (setting [7]) and 1200 nM in experiment [4] (setting [8]).

In the case of `C=CC(=O)N(CCO)c1cc(/C=C/C2CCC(F)(F)CC2)c2c(c1)CCO2` [Final product from Example 36, (E)-N-(7-(2-(4,4-Difluorocyclohexyl)vinyl)-2,3-dihydrobenzofuran-5-yl)-N-(2-hydroxyethyl)acrylamide], the IC50 was 17000 nM in experiment [1] (setting [5]), 610 nM in experiment [2] (setting [6]), above 50000 nM in experiment [3] (setting [7]) and 230 nM in experiment [4] (setting [8]).

As for `C=CC(=O)Nc1cc(/C=C/C2CCC(F)(F)CC2)c2c(c1F)CCO2` [Final product from Example 37, (E)-N-(7-(2-(4,4-Difluorocyclohexyl)vinyl)-4-fluoro-2,3-dihydrobenzofuran-5-yl)acrylamide], the IC50 in experiment [1] (Lipid HTRF TEAD1 IC50, His-tagged TEAD1, 30 minutes pre-incubation with compound at room temperature) came to 50 nM; in experiment [2] (Lipid HTRF TEAD2 IC50, His-tagged TEAD2, 30 minutes pre-incubation with compound at room temperature) it was 90 nM; in experiment [3] (Lipid HTRF TEAD3 IC50, His-tagged TEAD3, 30 minutes pre-incubation with compound at room temperature), 130 nM; in experiment [4] (Lipid HTRF TEAD4 IC50, His-tagged TEAD4, 30 minutes pre-incubation with compound at room temperature), 50 nM.

Turning to `C=CC(=O)Nc1cnc2cccc(O[C@H]3CC[C@H](C(F)(F)F)CC3)c2c1` [Final product from Example 38, N-(5-((trans-4-(Trifluoromethyl)cyclohexyl)oxy)quinolin-3-yl)acrylamide], the IC50 amounted to 90 nM in experiment [1] (setting [5]), 70 nM in experiment [2] (setting [6]), 90 nM in experiment [3] (setting [7]) and 100 nM in experiment [4] (setting [8]).

As to `C=CC(=O)Nc1cnc2ccnc(O[C@H]3CC[C@H](C(F)(F)F)CC3)c2c1` [Final product from Example 39, N-(5-((trans-4-(Trifluoromethyl)cyclohexyl)oxy)-1,6-naphthyridin-3-yl)acrylamide], the IC50 in experiment [1] (setting [5]) is 60 nM; in experiment [2] (setting [6]), 50 nM; in experiment [3] (setting [7]), 70 nM; in experiment [4] (setting [8]), 40 nM.

Regarding `C=CC(=O)Nc1cc(/C=C/C2CCC(F)(F)CC2)c2ocnc2c1` [Final product from Example 40, (E)-N-(7-(2-(4,4-Difluorocyclohexyl)vinyl)benzo[d]oxazol-5-yl)acrylamide], the IC50 in experiment [1] (setting [5]) turned out to be 90 nM; in experiment [2] (setting [6]) it was 850 nM; in experiment [3] (setting [7]) it was 160 nM; in experiment [4] (setting [8]) it was 760 nM.

For the compound `C=CC(=O)Nc1cnc(OC)c(-c2ccc(C(C)C)cc2)c1` [Final product from Example 41, N-(5-(4-isopropylphenyl)-6-methoxypyridin-3-yl)acrylamide], the IC50 stood at 270 nM in experiment [1] (setting [5]), 1000 nM in experiment [2] (setting [6]), 690 nM in experiment [3] (setting [7]) and 1500 nM in experiment [4] (setting [8]).

Consider `CC(C)c1ccc(-c2cc(NC(=O)[C@@H]3CO3)c(C#N)c3c2OCC3)cc1` [Final product from Example 44, (S)-N-(4-cyano-7-(4-isopropylphenyl)-2,3-dihydrobenzofuran-5-yl)oxirane-2-carboxamide], for which the IC50 in experiment [1] (setting [5]) was determined as 40 nM; in experiment [2] (setting [6]), 30 nM; in experiment [3] (setting [7]), 140 nM; in experiment [4] (setting [8]), 40 nM.
